# US20230235279A1, “AMNIOTIC-LIKE EPITHELIAL CELL GENERATION” (THE BABRAHAM INSTITUTE, priority 2020, published 2023)
# Legend:
# Format in all cases: cell-based, human
# [1] = test system: hPSC after 3-5 days of the capacitation; test: Signalling requirement for hALEC formation (single, joint and alternative MAPK, TGFb, BMP inhibitors); conditions: for induction of hALEC by alternative MAPK or TGFb pathway inhibitor: Trametinib 5, 10 or 30 nM, SB431542 10 or 20 uM, LY2109761 1 or 5 uM, LY364947 5, 10 or 20 uM; for efficient formation of 3D bubble-like epithelial structures and upregulation of amnion markers: A8301 only, PD03 only or both (AP)
# Experimental: (§1) FIGS. 3 (A to I). Signalling requirement for hALEC differentiation: FIG. 3(A) depicts experimental outline; naïve hPSC were capacitated in different conditions for 3 days (2uM XAV939 in N2B27 basal medium (“XAV939”), N2B27 basal medium only (“N2B27”), 1 uM A8301 in N2B27 basal medium (“A8301”), or medium E8 for culturing primed hPSCs (“E8”)), and then differentiated to hALEC in AP media. FIG. 3(B) is whole-well view of cells after hALEC induction stained with fluorescently labelled phalloidin. […] FIGS. 3(F) and (G) show images of cells stained with fluorescently labelled phalloidin and qRT-PCR results, respectively, of hALEC differentiated in the presence of alternative MAPK inhibitors (1 uM PD0325901, or 5 nM, 10 nM or 30 nM Trametinib). FIGS. 3(H) and (I) show images of cells stained with fluorescently labelled phalloidin and qRT-PCR results, respectively, for hALEC differentiated in the presence of alternative TGFb pathway inhibitors (1 uM A8301; 10 or 20 uM SB431542; 1 uM or 5 uM LY2109761; 5 uM or 10uM or 20 uM LY364947).
# We next assessed whether the joint inhibition of the TGFb/Activin/Nodal and MAPK pathways is required for the formation of hALEC. We tested this using hPSC after 3-5 days of the capacitation in independent experiments by supplementing their media with either A8301 only (“A”), PD03 only (“P”), neither of the inhibitors (“none”), or both (“AP”).
# Therefore, hALEC differentiation is induced specifically by inhibition of MAPK and TGFb pathways and not by other effects of PD0325901 and A8301.
# The formation of cells expressing a subset of amnion markers has been previously reported after treating conventional primed hPSC with the growth factor BMP4 (Shao et al. Nat Mater 2017; Shao et al. Nat Commun 2017; Zheng et al. Nature 2019). However, this finding is at odds with the timing of events that occur during embryo development. In particular, primed hPSC closely resemble late post-implantation epiblast cells just prior to the onset of gastrulation (Nakamura et al. Nature 2016), a developmental stage that occurs in humans at around 11-12dpf (Carnegie stage, CS, 5c), which is several days after the emergence of the amnion in the implanting embryo at 7dpf (CS 5a) (The Virtual Human Embryo Atlas). Therefore, BMP-dependent route of differentiation reported in the aforementioned works can’t explain the mechanism of formation of amnion and amniotic cavity in primate embryos. Nevertheless, we tested whether BMP signalling was required for hALEC differentiation by adding a selective BMP receptor (ALK-2, -3, -6) inhibitor called LDN193189 to the AP-containing media (a combination referred to as “DAP” hereafter).
# naïve hPSC = test: hALEC differentiation in AP after capacitation in different conditions; conditions: 3 days capacitation in the named condition, then AP; for hALEC differentiation after capacitation condition: morphology and markers
# Experimental: as §1
# WNT inhibition is beneficial but not essential for the formative transition of hPSC, which is rather guided by their autocrine signalling (Rostovskaya et al. Development 2019). We induced formative transition by the range of conditions: (1) WNT inhibitor XAV939 in N2B27 basal medium; (2) simple withdrawal of the factors (PD0325901, Go6983, XAV939, LIF) for naïve hPSC maintenance from the medium and culturing in basal N2B27 conditions; (3) TGFb inhibitor A8301 in N2B27 basal medium; (4) E8 medium containing TGFb and FGF2 for culturing primed hPSC (Chen et al. Nat Methods 2011); all for 3 days, and then applied AP conditions for differentiation (FIG. 3A). […] Therefore, the ability to form hALEC capable of self-assembly into spheroids, is an intrinsic property of hPSC that is established during capacitation, rather than a property that is acquired in response to exogenous WNT inhibition.
# [2] = test system: hPSC at different stages of capacitation; test: Competence window for hALEC differentiation during capacitation (AP or DAP); conditions: hPSC capacitated 8 days, AP medium plus BMP inhibitor
# Source text: FIGS. 4 (A to G). A competence window for hALEC differentiation during the formative transition: FIG. 4(A) depicts the experimental outline. hPSC (HNES1 line) were capacitated in XAV939 and analysed for their ability to form hALEC each day of capacitation, by treatment with AP of DAP for 4 days. […] FIG. 4(D) is a qRT-PCR for markers in hALEC differentiated using AP medium after various length of capacitation. FIG. 4(E) depicts the immunofluorescence for markers (OCT4, CDX2 and E-cadherin) during the time course of hALEC differentiation using naïve and partially capacitated HNES1. […] FIG. 4(G) is the flow cytometry analysis.
# To identify a window during the progression from naïve to primed pluripotency where hPSC have the competence to form amnion, we systematically tested the ability of hPSC at different stages of capacitation to respond to hALEC-inducing cues (FIG. 4A). In these experiments, hALEC differentiation was induced using two alternative media compositions – AP and DAP – in order to assess whether the requirement for BMP pathway activity is altered this window of competence. […] The efficiency of hALEC formation was evaluated visually by their efficiency to form 3D epithelial spheres (FIGS. 4B and 4C), and markers expression (FIG. 4D). […]
structure (smiles),measurement,setting,value
c1ccc2c(-c3cnn4cc(-c5ccc(N6CCNCC6)cc5)cnc34)ccnc2c1 [LDN193189],effect of blocking BMP signalling on hALEC differentiation,[1]; added to AP-containing media (DAP),did not interfere with hALEC differentiation
c1ccc(-c2[nH]ncc2-c2ccnc3ccccc23)nc1 [LY364947],induction of hALEC by alternative MAPK or TGFb pathway inhibitor,[1],successful induction of hALEC
c1ccc(-c2nn3c(c2-c2ccnc4cc(OCCN5CCOCC5)ccc24)CCC3)nc1 [LY2109761],induction of hALEC by alternative MAPK or TGFb pathway inhibitor,[1],successful induction of hALEC
Oc1nc(-c2ccc(C(F)(F)F)cc2)nc2c1CSCC2 [XAV939],efficiency of hALEC differentiation after capacitation condition,naïve hPSC,consistently high
same,hALEC differentiation after capacitation condition,naïve hPSC,successfully differentiated to hALEC
O=C(NOC[C@H](O)CO)c1ccc(F)c(F)c1Nc1ccc(I)cc1F [PD03],efficient formation of 3D bubble-like epithelial structures and upregulation of amnion markers,[1],Only the cells treated by both inhibitors were able to efficiently form
NC(=O)c1ccc(-c2nc(-c3ccc4c(c3)OCO4)c(-c3ccccn3)[nH]2)cc1 [SB431542],induction of hALEC by alternative MAPK or TGFb pathway inhibitor,[1],successful induction of hALEC
COc1cc(-c2cc(-c3cccc(O)c3)cnc2N)cc(OC)c1OC [K02288],extension of the window of competence by alternative BMP inhibitor,[2],extension of the window of competence was observed
Cc1cccc(-c2nn(C(=S)Nc3ccccc3)cc2-c2ccnc3ccccc23)n1 [A8301],efficient formation of 3D bubble-like epithelial structures and upregulation of amnion markers,[1],Only the cells treated by both inhibitors were able to efficiently form
same,efficiency of hALEC differentiation after capacitation condition,naïve hPSC,consistently high
same,hALEC differentiation after capacitation condition,naïve hPSC,successfully differentiated to hALEC
